# Assay results taken from US20060134100A1, “Dc-sign blockers and their use for preventing or treating viral infections” (priority 2002, published 2006).
# Test system: DEN-1 virus strain FGA/NA d1d
# Type: cell-based
# Conditions: THP/DC-SIGN cells, m.o.i. 5 AP61FFU/cell
# Method: Prior to infection, THP-1/DC/SIGN cells were incubated with either Mab 9D12 (dilution 1:50), Mab BD12.5 (20 μg/ml), Mab 1B10.2.6 (20 μg/ml), EDTA (5 mM), mannan (20 μg/ml), or mock-treated (control). Treated cells were infected with DEN-1 virus strain FGA/NA dld (5 AP61FFU/cell) in the presence of reagents for 2 hrs. Viral antigens were detected by indirect immunofluorescence as described in the legend of FIG. 1. The percentages of infected cells 48 h post-infection are indicated. Values represent the mean of triplicate assays±SD.
# Cells were washed once with RPMI 1640, incubated with highly purified virus in RPMI 1640 supplemented with 0.2% bovine serum albumine (BSA, pH 7.5) (Sigma) for 2 hrs at 37° C. and placed into fresh media supplemented with 2% FCS, 2 mM L-glutamine and antibiotics Peni/Strepto at 37° C. for 40 hrs.
# Adherent cells were incubated either with EDTA (5 mM), mannan (20 μg/ml), anti-DC-SIGN Mab 1B10.2.6 (20 μg/mi), anti-LMCV Mab 12.5 (isotype control, 20 μg/ml), or DEN E-specific Mab 9D12 (dilution 1:50) in RPMI 1640 supplemented with 0.2% BSA for 20 min at room temperature before binding the virus for 2 hrs. Two hours after infection, cells were washed with RPMI 1640 and incubated with RMPI 1640 2% FCS for 40 hrs. […]
compound,measurement,setting,value
mannan,reduction of FGA/NA d1d infectivity,mannan 20 μg/ml,75%
O=C(O)CN(CCN(CC(=O)O)CC(=O)O)CC(=O)O [EDTA],infectivity of DEN-1 virus after preincubation of cells,EDTA 5 mM,essentially abolished
